Test results taken from patent US20240002343A1, “COMPOUNDS HAVING INHIBITORY EFFECT ON MITOCHONDRIAL HYPERFISSION” (KYUSHU UNIVERSITY, NATIONAL UNIVERSITY CORPORATION, priority 2020, published 2024).

Columns and labels:
[1] = system: cardiomyocytes derived from neonatal rats; experiment: Inhibitory effect on mitochondrial hyperfission by hypoxic stimulation; format: cell-based, rat; conditions: 0.3 μM, 1 hour preincubation, 18 hours hypoxic environment; compared with cilnidipine positive control
Experimental: A system for evaluating quantitatively the degree of mitochondrial division in cells was constructed. Specifically, cardiomyocytes derived from neonatal rats were cultured under either normoxia (20%) or hypoxia (1%) for 16 hours. Subsequently, the cells were stained with a fluorescent dye (MitoTracker Green FM, Thermo Fisher Scientific) that selectively stains mitochondria. Then, the mitochondria were observed under a fluorescence microscope, and the mitochondrial morphology was quantitatively measured by image analysis.
FIGS. 2(a) and (b) are each a micrograph and an image explaining a method for quantitatively measuring mitochondrial morphology by image analysis. FIG. 2(a) is a representative fluorescence micrograph showing the general morphology of mitochondria. FIG. 2(b) is an image obtained by filtering the photograph in FIG. 2(a) and extracting the shape of the mitochondria. Image analysis was performed based on the image in FIG. 2(b) to quantify the lengths of mitochondrial fragments. For the quantification, in order to classify the mitochondria into vesicle-shaped, intermediate-shaped and tube-shaped, <3.5 μm is set for vesicle-shaped, 3.6 μm<length<4.2 μm is set for intermediate-shaped, and >4.2 μm is set for tube-shaped, respectively, as thresholds.
The system for evaluation constructed in Test Example 1 was used to evaluate the mitochondrial hyperfission inhibitory effects of the compounds prepared in Examples.
Specifically, at first, each compound was added to the culture medium of cardiomyocytes derived from neonatal rats at a final concentration of 0.3 μM, and the mixture was incubated for 1 hour.
Then, each cells were cultured for an additional 18 hours in a hypoxic environment. Subsequently, mitochondria were stained with MitoTracker Green FM (Thermo Fisher Scientific) or anti-pyruvate dehydrogenase antibody (Abcam) and observed under a fluorescence microscope to quantitatively measure the morphology of mitochondria. For comparison, a group involving cilnidipine as a positive control and a group involving dimethyl sulfoxide (DMSO) as a negative control were also prepared.

[2] = system: calcium channel; experiment: Calcium antagonism (KCl-induced calcium ion influx, Fura 2-AM); format: cell-based, mouse; conditions: Neuro-2a cells; 0, 1, 10, 100 and 1,000 nM, 30 minutes; potassium chloride 60 mM
Experimental: The compounds prepared in Examples were evaluated for calcium channel blocking activity. Specifically, at first, Neuro-2a cells, mouse-derived neuroblastoma cell line, were cultured in a serum-free medium, and Fura 2-AM (Dojindo Laboratories) that is a calcium ion probe, was added to the medium so that it was taken up by the cells.
Subsequently, after replacing the medium with HEPES buffer (pH 7.4), each compound was each added at final concentrations of 0, 1, 10, 100 and 1,000 nM and the mixtures were incubated for 30 minutes.
Then, depolarization stimulation was applied with potassium chloride (final concentration 60 mM), and the influx of calcium ions into the cells was measured by fluorescence microscopy.
FIGS. 4(a) and (b) are graphs that illustrate the results of measurement of increase in intracellular calcium ion concentration induced by potassium chloride stimulation. Δratio on the vertical axis is expressed by formula (F1) below and represents a value that reflects the intracellular calcium ion concentration.
A ratio=(fluorescence intensity at fluorescence wavelength of 510 nm against an excitation wavelength of 340 nm)/(fluorescence intensity at fluorescence wavelength of 510 nm against an excitation wavelength of 380 nm) Formula (F1)

[3] = system: cardiomyocytes derived from neonatal rats; experiment: Inhibitory effect on aging of cardiomyocytes under hypoxic stimulation (β-galactosidase, SPiDER-βGAL); format: cell-based, rat; conditions: 1 μM, 1 hour preincubation, 16 hours normoxia (20%) or hypoxia (1%); compared with cilnidipine
Experimental: The compounds prepared in Examples were investigated for effects on the aging of cardiomyocytes. The aging of cardiomyocytes was evaluated by detecting β-galactosidase, one of the aging markers.
Specifically, DOJINDO's cell aging detection kit-SPiDER-βGAL was used for detection according to the attached protocol. Each compound was added to the culture medium of cardiomyocytes derived from neonatal rats at a final concentration of 1 μM and the medium were incubated for 1 hour. Then, the medium was cultured for 16 hours under normoxia (20%) or hypoxia (1%). Subsequently, Bafilomycin A1, which inhibits endogenous β-galactosidase activity, was added and the medium was incubated for 1 hour. After washing the cells with a medium, SPiDER-βGAL was added thereto and the mixture was incubated for 30 minutes. After removing the supernatant, HEPES buffer (pH 7.4) was added thereto and the cells were observed under a fluorescence microscope to detect β-galactosidase in the aging cells. For comparison, a group involving cilnidipine as a positive control and a group involving dimethylsulfoxide (DMSO) as a negative control were prepared.
Arrowheads indicate the β-galactosidase-positive cells.

[4] = system: Drp1-filamin complex; conditions: Non-Patent Document 6; cited from earlier work

SMILES	mitochondrial hyperfission inhibitory effect (percentage of cells with vesicle-shaped mitochondria) [1]	Ca2+ antagonism (increase in intracellular calcium ion concentration induced by potassium chloride stimulation) [2]	suppressive effect on aging (β-galactosidase-positive cells) [3]	inhibition of formation of the Drp1-filamin complex [4]
COCCOC(=O)c1c(C)nc(C)c(C(=O)Nc2cccc(C(=O)O)c2)c1-c1ccccc1 [Compound 25, 3-(5-((2-methoxyethoxy)carbonyl)-2,6-dimethyl-4-phenylnicotinamido)benzoic acid]	the same as or more effect of cilnidipine	–	–	–
COCCOC(=O)C1=C(C)NC(C)=C(C(=O)NCc2ccccc2)C1c1cccc([N+](=O)[O-])c1 (stereo not drawn) [Compound 20a, 2-Methoxyethyl 5-(benzylcarbamoyl)-2,6-dimethyl-4-(3-nitrophenyl)-1,4-dihydropyridine-3-carboxylate]	the same as or more effect of cilnidipine	no Ca2+ antagonism	–	–
COCCOC(=O)c1c(C)nc(C)c2c(=O)n(Cc3ccccc3)c3ccccc3c12 [Compound 10b, 2-Methoxyethyl 6-benzyl-2,4-dimethyl-5-oxo-5,6-dihydrobenzo[c][2,7]naphthyridine-1-carboxylate]	the same as or more effect of cilnidipine	–	–	–
COCCOC(=O)c1c(C)nc(C)c2c(=O)n(C)c3ccccc3c12 [Compound 10a, 2-Methoxyethyl 2,4,6-trimethyl-5-oxo-5,6-dihydrobenzo[c][2,7]naphthyridine-1-carboxylate]	the same as or more effect of cilnidipine	–	–	–
Cc1nc(C)c2c(=O)[nH]c3ccccc3c2c1C(=O)O [Compound 14, 2,4-dimethyl-5-oxo-5,6-dihydrobenzo[c][2,7]naphthyridine-1-carboxylic acid]	the same as or more effect of cilnidipine	no Ca2+ antagonism	–	–
COCCOC(=O)c1c(C)nc(C)c(C(=O)O)c1-c1ccccc1[N+](=O)[O-] [Compound 6, 5-((2-methoxyethoxy)carbonyl)-2,6-dimethyl-4-(2-nitrophenyl)nicotinic acid]	the same as or more effect of cilnidipine	no Ca2+ antagonism	–	–
COCCOC(=O)c1c(C)nc(C)c2c(=O)n(-c3cccc(C(=O)OC(C)(C)C)c3)c3ccccc3c12 [Compound 17c, 2-Methoxyethyl 6-(3-(tert-butoxycarbonyl)phenyl)-2,4-dimethyl-5-oxo-5,6-dihydrobenzo[c][2,7]naphthyridine-1-carboxylate]	the same as or more effect of cilnidipine	–	–	–
COCCOC(=O)C1=C(C)NC(C)=C(C(=O)OCCC#N)C1c1cccc([N+](=O)[O-])c1 (stereo not drawn) [Compound 18, 3-(2-cyanoethyl) 5-(2-methoxyethyl) 2,6-dimethyl-4-(3-nitrophenyl)-1,4-dihydropyridine-3,5-dicarboxylate]	the same as or more effect of cilnidipine	no Ca2+ antagonism	–	–
COCCOC(=O)C1=C(C)NC(C)=C(C(=O)O)C1c1ccccc1[N+](=O)[O-] (stereo not drawn) [Compound 2, 5-((2-methoxyethoxy)carbonyl)-2,6-dimethyl-4-(2-nitrophenyl)-1,4-dihydropyridine-3-carboxylic acid]	the same as or more effect of cilnidipine	no Ca2+ antagonism	suppressive effect on aging that is the same as cilnidipine	–
COCCOC(=O)C1=C(C)NC(C)=C(C(=O)Nc2cccc(C(=O)OCCC#N)c2)C1c1ccccc1 (stereo not drawn) [Compound 30, 2-Methoxyethyl 5-((3-((2-cyanoethoxy)carbonyl)phenyl)carbamoyl)-2,6-dimethyl-4-phenyl-1,4-dihydropyridine-3-carboxylate]	the same as or more effect of cilnidipine	–	–	–
COCCOC(=O)c1c(C)nc(C)c2c(=O)n(-c3cccc(OC)c3)c3ccccc3c12 [Compound 17a, 2-Methoxyethyl 6-(3-methoxyphenyl)-2,4-dimethyl-5-oxo-5,6-dihydrobenzo[c][2,7]naphthyridine-1-carboxylate]	the same as or more effect of cilnidipine	no Ca2+ antagonism	–	–
COCCOC(=O)C1=C(C)NC(C)=C(C(=O)Nc2ccc(OC)cc2)C1c1ccccc1 (stereo not drawn) [Compound 16b, 2-Methoxyethyl 5-((4-methoxyphenyl)carbamoyl)-2,6-dimethyl-4-phenyl-1,4-dihydropyridine-3-carboxylate]	the same as or more effect of cilnidipine	no Ca2+ antagonism	–	–
COCCOC(=O)c1c(C)nc(C)c(C(=O)NCCCc2ccncc2)c1-c1ccccc1[N+](=O)[O-] [Compound 4f, 2-Methoxyethyl 2,6-dimethyl-4-(2-nitrophenyl)-5-((3-(pyridin-4-yl)propyl)carbamoyl)nicotinate]	the same as or more effect of cilnidipine	no Ca2+ antagonism	suppressive effect on aging that is the same as cilnidipine	–
COCCOC(=O)C1=C(C)NC(C)=C(C(=O)Nc2cccc(C(=O)O)c2)C1c1ccccc1 (stereo not drawn) [Compound 31, 3-(5-((2-methoxyethoxy)carbonyl)-2,6-dimethyl-4-phenyl-1,4-dihydropyridine-3-carboxamido)benzoic acid]	the same as or more effect of cilnidipine	–	–	–
COCCOC(=O)C1=C(C)NC(C)=C(C(=O)OC/C=C/c2ccccc2)C1c1cccc([N+](=O)[O-])c1 (stereo not drawn) [Cilnidipine]	–	–	–	inhibit formation of the Drp1-filamin complex
COCCOC(=O)c1c(C)nc(C)c(C(=O)Nc2cccc(C(=O)OC(C)(C)C)c2)c1-c1ccccc1 [Compound 24, 2-Methoxyethoxy 5-((3-(tert-butoxycarbonylcarbonyl)phenyl)carbamoyl)-2,6-dimethyl-4-phenylnicotinate]	the same as or more effect of cilnidipine	–	–	–
COCCOC(=O)c1c(C)nc(C)c(C(=O)Nc2cccc(C(=O)OC)c2)c1-c1ccccc1 [Compound 26, 2-Methoxyethoxy 5-((3-(methoxycarbonyl)phenyl)carbamoyl)-2,6-dimethyl-4-phenylnicotinate]	the same as or more effect of cilnidipine	–	–	–
